Results reported in ChEMBL document CHEMBL4622861, “Synthesis and biological evaluation of 6-nitro-1,2,4-triazoloazines containing polyphenol fragments possessing antioxidant and antiviral activity” (Bioorg Med Chem Lett, 2020).
The source made the active and inactive calls. The calls are words filed in the database; no cut-off is given here.

Tests used:
[1] = Inhibition of M2 proton channel in Influenza A virus (A/Puerto Rico/8/34(H1N1)) infected in MDCK cells assessed as inhibition of viral infection; type: cell-based, Influenza A virus (A/Puerto Rico/8/1934(H1N1))
[2] = Cytotoxicity against MDCK cells; type: cell-based, Canis lupus familiaris; conditions: dog
[3] = system: M2 proton channel of Influenza A virus; assay: Selectivity index, ratio of CC50 for MDCK cells to IC50 for M2 proton channel in Influenza A virus (A/Puerto Rico/8/34(H1N1) ) infected in MDCK cells assessed as inhibition of viral infection; type: toxicity, cell-based; conditions: dog, read-out: Ratio CC50/IC50
Influenza A virus [4] = assay: Antiviral activity against Influenza A virus (A/Puerto Rico/8/34(H1N1)) infected in MDCK cells assessed as reduction in viral titer at 100 uM measured at 0 to 2 hrs post-infection; type: functional, organism-based; conditions: A/Puerto Rico/8/1934(H1N1)
Influenza A virus [5] = assay: Antiviral activity against Influenza A virus (A/Puerto Rico/8/34(H1N1)) infected in MDCK cells assessed as reduction in viral titer at 100 uM measured at 0 to 8 hrs post-infection; type: functional, organism-based; conditions: A/Puerto Rico/8/1934(H1N1)
Influenza A virus [6] = assay: Antiviral activity against Influenza A virus (A/Puerto Rico/8/34(H1N1)) infected in MDCK cells assessed as reduction in viral titer at 50 uM measured after 4 hrs post-infection; type: functional, organism-based; conditions: A/Puerto Rico/8/1934(H1N1)
[7] = biological target: Hemagglutinin (Influenza A virus (A/Puerto Rico/8/1934(H1N1))) (UniProt P03452); assay: Inhibition of Hemagglutinin in Influenza A virus (A/Puerto Rico/8/34(H1N1)) assessed as reduction in virus-induced agglutination of chicken erythrocytes at 100 uM
Chain of Hemagglutinin (Influenza A virus (A/Puerto Rico/8/1934(H1N1))) (P03452 whole entry): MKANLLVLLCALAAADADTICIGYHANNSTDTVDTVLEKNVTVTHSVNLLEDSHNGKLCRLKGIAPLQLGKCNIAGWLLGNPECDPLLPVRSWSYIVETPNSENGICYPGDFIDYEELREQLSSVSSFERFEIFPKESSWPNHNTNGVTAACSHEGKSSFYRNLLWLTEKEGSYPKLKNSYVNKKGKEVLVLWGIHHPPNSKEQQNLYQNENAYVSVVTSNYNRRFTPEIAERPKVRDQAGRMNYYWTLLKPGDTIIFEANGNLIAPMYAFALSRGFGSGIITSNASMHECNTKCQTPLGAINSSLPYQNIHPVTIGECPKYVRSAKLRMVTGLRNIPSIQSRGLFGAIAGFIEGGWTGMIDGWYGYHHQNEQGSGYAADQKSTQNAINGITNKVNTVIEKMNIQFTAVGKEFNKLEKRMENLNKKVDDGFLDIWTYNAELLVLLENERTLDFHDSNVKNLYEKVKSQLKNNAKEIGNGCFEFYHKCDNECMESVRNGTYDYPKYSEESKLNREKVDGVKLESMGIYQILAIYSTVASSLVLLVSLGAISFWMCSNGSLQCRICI

[8] = Antioxidant activity in K3[Fe(CN)6]/K4[Fe(CN)6] system by potentiometric method; type: functional
Influenza A virus [9] = assay: Antiviral activity against Influenza A virus (A/Puerto Rico/8/34(H1N1)) infected in MDCK cells assessed as reduction in viral titer at 50 uM measured at 0 to 2 hrs post-infection; type: functional, organism-based; conditions: A/Puerto Rico/8/1934(H1N1)
Influenza A virus [10] = assay: Antiviral activity against Influenza A virus (A/Puerto Rico/8/34(H1N1)) infected in MDCK cells assessed as reduction in viral titer at 50 uM measured at 0 to 8 hrs post-infection; type: functional, organism-based; conditions: A/Puerto Rico/8/1934(H1N1)
Influenza A virus [11] = assay: Antiviral activity against Influenza A virus (A/Puerto Rico/8/34(H1N1)) infected in MDCK cells assessed as reduction in viral titer at 100 uM measured after 4 hrs post-infection; type: functional, organism-based; conditions: A/Puerto Rico/8/1934(H1N1)
[12] = biological target: Hemagglutinin (Influenza A virus (A/Puerto Rico/8/1934(H1N1))) (UniProt P03452); assay: Inhibition of Hemagglutinin in Influenza A virus (A/Puerto Rico/8/34(H1N1)) assessed as reduction in virus-induced agglutination of chicken erythrocytes at 50 uM

SMILES	IC50 [1] [µM]	CC50 [2] [µM]	selectivity ratio [3]	further results
O=[N+]([O-])C1=CNc2nc(C(F)(F)F)nn2C1c1ccc(O)c(O)c1 (configuration not stated)	21	1200	57	–
O=[N+]([O-])C1=CNc2nc(-c3ccco3)nn2C1c1ccc(O)c(O)c1 (configuration not stated)	101	> 1200	> 12	–
O=[N+]([O-])C1=CNc2ncnn2C1c1ccc(O)c(O)c1O (configuration not stated)	595	405	1	–
O=[N+]([O-])C1=CNc2nc(C(F)(F)F)nn2C1O (configuration not stated)	11	33	3	–
O=[N+]([O-])C1=CNc2ncnn2C1c1c(O)cc(O)cc1O (configuration not stated)	20	> 1030	> 51	Activity (Influenza A virus [4]): Active; Activity (Influenza A virus [5]): Active; Activity (Influenza A virus [6]): Active; inhibition [7]: Active
O=[N+]([O-])C1=NNc2nc(C(F)(F)F)nn2C1c1ccc(O)c(O)c1O (configuration not stated)	10	67	7	–
CSc1nc2n(n1)C(c1ccc(O)c(O)c1O)C([N+](=O)[O-])=NN2 (configuration not stated)	26	196	8	Activity [8]: inactive
O=[N+]([O-])C1=CNc2ncnn2C1c1ccc(O)c(O)c1 (configuration not stated)	42	368	9	–
O=[N+]([O-])C1=CNc2ncnn2C1O (configuration not stated)	28	123	4	–
O=[N+]([O-])C1=NNc2ncnn2C1c1ccc(O)c(O)c1 (configuration not stated)	1090	> 1640	2	–
CCC(CC)O[C@@H]1C=C(C(=O)O)C[C@H](N)[C@H]1NC(C)=O [OSELTAMIVIR CARBOXYLATE]	13	66	5	–
O=[N+]([O-])C1=CNc2nc(-c3ccco3)nn2C1c1c(O)cc(O)cc1O (configuration not stated)	70	280	4	–
O=[N+]([O-])C1=CNc2nc(C(F)(F)F)nn2C1c1c(O)cc(O)cc1O (configuration not stated)	27	838	32	–
O=[N+]([O-])C1=NNc2ncnn2C1c1ccc(O)cc1O (configuration not stated)	34	90	3	Activity [8]: inactive
O=[N+]([O-])C1=CNc2nc(-c3ccco3)nn2C1c1ccc(O)c(O)c1O (configuration not stated)	97	317	3	–
O=[N+]([O-])C1=CNc2nc(-c3ccco3)nn2C1c1ccc(O)cc1O (configuration not stated)	9	119	14	–

SMILES	IC50 [1] [µM]	CC50 [2] [µM]	selectivity ratio [3]	further results
O=[N+]([O-])C1=CNc2nc(C(F)(F)F)nn2C1c1ccc(O)cc1O (configuration not stated)	6	258	43	–
CC(N)C12CC3CC(CC(C3)C1)C2 (configuration not stated) [RIMANTADINE]	0.3	> 200	> 667	–
O=[N+]([O-])C1=NNc2nc(C(F)(F)F)nn2C1c1c(O)cc(O)cc1O (configuration not stated)	27	252	9	–
CSc1nc2n(n1)C(c1c(O)cc(O)cc1O)C([N+](=O)[O-])=NN2 (configuration not stated)	23	877	39	–
CSc1nc2n(n1)C(c1ccc(O)cc1O)C([N+](=O)[O-])=NN2 (configuration not stated)	18	201	11	Activity [8]: inactive
O=[N+]([O-])C1=NNc2ncnn2C1O (configuration not stated)	> 36	87	2	–
O=[N+]([O-])C1=CNc2nc(C(F)(F)F)nn2C1c1ccc(O)c(O)c1O (configuration not stated)	47	373	8	–
O=[N+]([O-])C1=NNc2ncnn2C1c1c(O)cc(O)cc1O (configuration not stated)	26	119	5	–
O=[N+]([O-])C1=NNc2ncnn2C1c1ccc(O)c(O)c1O (configuration not stated)	86	228	3	–
O=[N+]([O-])C1=NNc2nc(C(F)(F)F)nn2C1c1ccc(O)c(O)c1 (configuration not stated)	> 120	183	2	–
O=[N+]([O-])C1=CNc2ncnn2C1c1ccc(O)cc1O (configuration not stated)	167	> 1090	> 7	–
O=[N+]([O-])C1=NNc2nc(C(F)(F)F)nn2C1c1ccc(O)cc1O (configuration not stated)	33	108	3	–
CSc1nc2n(n1)C(O)C([N+](=O)[O-])=NN2 (configuration not stated)	15	99	7	–
O=[N+]([O-])C1=CNc2nc(-c3ccco3)nn2C1	9	108	13	–
CSc1nc2n(n1)C(c1ccc(O)c(O)c1)C([N+](=O)[O-])=NN2 (configuration not stated)	44	362	8	Activity (Influenza A virus [9]): Active; Activity (Influenza A virus [10]): Active; Activity (Influenza A virus [11]): Active; inhibition [12]: Active
O=[N+]([O-])C1=NNc2nc(C(F)(F)F)nn2C1O (configuration not stated)	11	40	4	–
